Measured values taken from ChEMBL document CHEMBL1138332, “Synthesis of natural product-inspired inhibitors of Mycobacterium tuberculosis mycothiol-associated enzymes: the first inhibitors of GlcNAc-Ins deacetylase” (J Med Chem, 2007).

Experiments:
[1] = molecular target: T1, 1D-myo-inositol 2-acetamido-2-deoxy-alpha-D-glucopyranoside deacetylase (Mycobacterium tuberculosis, UniProt P9WJN3); test: Inhibition of Mycobacterium tuberculosis MshB by fluorescence-detected HPLC assay
T1 sequence (P9WJN3 whole entry): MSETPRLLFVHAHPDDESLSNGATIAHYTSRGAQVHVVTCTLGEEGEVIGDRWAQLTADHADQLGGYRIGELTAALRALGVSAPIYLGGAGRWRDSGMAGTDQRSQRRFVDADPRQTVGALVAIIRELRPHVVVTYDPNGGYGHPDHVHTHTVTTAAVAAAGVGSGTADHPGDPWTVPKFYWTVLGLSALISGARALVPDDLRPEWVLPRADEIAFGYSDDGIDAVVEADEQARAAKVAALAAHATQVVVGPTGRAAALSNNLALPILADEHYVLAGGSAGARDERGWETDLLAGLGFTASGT

[2] = molecular target: T2, Mycothiol S-conjugate amidase (Mycobacterium tuberculosis, UniProt P9WJN1); test: Inhibition of Mycobacterium tuberculosis MCA by fluorescence-detected HPLC assay
T2 sequence (P9WJN1 whole entry): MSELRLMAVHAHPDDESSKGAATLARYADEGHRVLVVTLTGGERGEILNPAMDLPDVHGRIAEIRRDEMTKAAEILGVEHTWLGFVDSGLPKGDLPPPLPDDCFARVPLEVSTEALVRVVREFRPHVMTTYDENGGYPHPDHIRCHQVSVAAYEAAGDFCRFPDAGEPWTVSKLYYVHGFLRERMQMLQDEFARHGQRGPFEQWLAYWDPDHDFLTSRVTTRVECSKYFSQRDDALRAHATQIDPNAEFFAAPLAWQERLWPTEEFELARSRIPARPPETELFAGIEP

For `O=C(N[C@H]1[C@H](O)[C@@H](O)[C@H](CO)O[C@H]1SC1CCCCC1)c1ccc(-c2ccc(Cl)cc2)o1` (single isomer, unassigned), the IC50 [1] was 7 µM and the IC50 [2] was 33 µM.

With `O=C(N[C@H]1[C@H](O)[C@@H](O)[C@H](CO)O[C@H]1SC1CCCCC1)C1COC(c2cccc(F)c2)=N1` (single isomer, unassigned) the IC50 [1] was 28 µM and the IC50 [2] was > 200 µM.

Compound `O=S(=O)(/C=C/CCc1ccccc1)N[C@H]1[C@H](O)[C@@H](O)[C@H](CO)O[C@H]1SC1CCCCC1` (single isomer, unassigned) has an IC50 [1] of 105 µM and an IC50 [2] of 90 µM.

In the case of `CC(C)(C)C(=O)ON[C@@H](CCc1ccccc1)C(=O)N[C@H]1[C@H](O)[C@@H](O)[C@H](CO)O[C@H]1SC1CCCCC1`, the IC50 [1] is reported as > 200 µM and the IC50 [2] is reported as 145 µM.

Work on `O=S(=O)(CCCCc1ccccc1)N[C@H]1[C@H](O)[C@@H](O)[C@H](CO)O[C@H]1SC1CCCCC1` (single isomer, unassigned) yielded an IC50 [1] of 101 µM and an IC50 [2] of 120 µM.

For `O=C(N[C@H]1[C@H](O)[C@@H](O)[C@H](CO)O[C@H]1SC1CCCCC1)C1CCOC(c2cccc(F)c2)=N1` (single isomer, unassigned), the IC50 [1] was 10 µM and the IC50 [2] was > 200 µM.
